{"source": "patent US20100048727A1", "about": "“PERFLUOROKETONE COMPOUNDS AND USES THEREOF” (priority 2007, published 2010)", "key": {"GVIA iPLA2": {"biological_target": "T1, GVIA iPLA2 (Homo sapiens, UniProt O60733)", "T1 sequence (O60733 1-806)": "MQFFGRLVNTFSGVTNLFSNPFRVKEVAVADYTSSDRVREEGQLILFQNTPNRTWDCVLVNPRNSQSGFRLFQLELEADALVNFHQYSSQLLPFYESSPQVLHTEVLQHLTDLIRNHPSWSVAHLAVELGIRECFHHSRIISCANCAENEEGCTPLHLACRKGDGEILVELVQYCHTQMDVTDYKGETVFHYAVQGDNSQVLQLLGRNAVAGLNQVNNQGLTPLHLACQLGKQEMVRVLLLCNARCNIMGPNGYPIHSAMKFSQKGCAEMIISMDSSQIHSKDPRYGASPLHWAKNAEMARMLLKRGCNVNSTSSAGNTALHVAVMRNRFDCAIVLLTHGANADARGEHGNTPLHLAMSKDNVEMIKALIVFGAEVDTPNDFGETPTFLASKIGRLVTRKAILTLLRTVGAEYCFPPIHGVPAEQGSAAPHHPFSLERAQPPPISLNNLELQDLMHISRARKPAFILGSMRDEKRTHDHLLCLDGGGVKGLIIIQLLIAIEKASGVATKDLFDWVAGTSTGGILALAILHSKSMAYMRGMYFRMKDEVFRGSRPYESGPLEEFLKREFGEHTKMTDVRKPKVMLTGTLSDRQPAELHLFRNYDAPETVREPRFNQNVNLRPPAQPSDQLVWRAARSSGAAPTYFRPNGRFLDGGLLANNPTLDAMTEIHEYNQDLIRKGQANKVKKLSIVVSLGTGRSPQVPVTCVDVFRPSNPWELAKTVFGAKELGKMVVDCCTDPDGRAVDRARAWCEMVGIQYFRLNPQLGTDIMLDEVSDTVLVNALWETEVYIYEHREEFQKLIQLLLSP", "experiment": "standard GVIA iPLA2 activity assay (DPPC/Triton X-100 mixed micelles)", "format": "biochemical", "conditions": "0.091 mole fraction; mean and standard error, n = 3", "method": "Inhibition of phospholipase A2 by perfluoroketone compounds. […] (2002) J. Med. Chem. 45: 2891-2893; Kokotos, G. et al. (2004). J. Med. Chem. 47: 3615-3628). The standard GVIA iPLA2 activity assay utilizes DPPC/Triton™ X-100 mixed micelles at a ratio of 1:4 as previously described (Stephens D. et al. (2006). J. Med. Chem., 49: 2821-2828). GV sPLA2 activity was measured in an assay similar to the assays for GIVA cPLA2 and GVIA iPLA2."}, "EAE-induced SJL/J mice": {"tested_on": "EAE-induced SJL/J mice", "experiment": "Clinical course of EAE in SJL/J mice treated with fluoroketone compounds", "format": "in vivo"}, "[1]": {"tested_on": "inflammatory cytokines and chemokines in spinal cord", "experiment": "Mouse Inflammation antibody array on spinal cords of EAE mice", "format": "in vivo", "conditions": "peak stage (day 18)", "method": "Mouse Inflammation antibody array. Spinal cords were removed from vehicle- and FKGK11-treated animals at the peak stage of disease, and were then homogenized and centrifuged at 1000×g. The proteins were extracted and analyzed using the RayBio® Mouse Inflammation Antibody Array 1.1 (Cat. #0106008/AAM-INF-1; RayBiotech Inc.; Norcross, Ga.), which simultaneously detects 40 cytokines and other related proteins. Densitometry analysis was performed to detect differences between the various inflammatory mediators.\nTo further examine the effects of iPLA2 inhibitor treatment, the expression of 40 inflammatory cytokines and chemokines was assessed using the RayBio® Mouse Inflammation Antibody Array 1.1 (RayBiotech Inc., Norcross, Ga, Cat. #0106008/AAM-INF-1). The analysis was carried out on spinal cords taken from the peak stage of clinical disability (day 18), from mice treated with either a vehicle control, or the iPLA2-specific inhibitor FKGK11."}}}
{"molecule": "O=C(CCCCc1ccccc1)C(F)(F)C(F)(F)F", "note": "[FKGK11, 1,1,1,2,2-Pentafluoro-7-phenyl-3-heptanone]", "values": [{"measurement": "Average percent inhibition GVIA iPLA2", "setting": "GVIA iPLA2", "result": "98 ± 16", "unit": "%"}, {"measurement": "clinical disability score between days 22-27", "setting": "EAE-induced SJL/J mice; delayed treatment from day 11, 5-point scale", "result": 0.8}, {"measurement": "maximal clinical disability score", "setting": "EAE-induced SJL/J mice; delayed treatment from day 11, on day 17, 5-point scale", "result": 1.4}, {"measurement": "clinical disability score at second peak", "setting": "EAE-induced SJL/J mice; delayed treatment from day 11, on day 30, 5-point scale", "result": 1.2}, {"measurement": "severity and progression of the disease (EAE)", "setting": "EAE-induced SJL/J mice; delayed treatment from day 11 after immunization, 2 weeks, i.p., vs vehicle", "result": "marked reduction"}, {"measurement": "maximum clinical disability score", "setting": "EAE-induced SJL/J mice; treatment before onset of symptoms, daily for 3 weeks from day 6, course until day 40, 5-point scale", "result": 1.0, "unit": "grade"}, {"measurement": "clinical severity and progression of EAE", "setting": "EAE-induced SJL/J mice; treatment before onset of symptoms, daily for 3 weeks from day 6, vs vehicle", "result": "marked reduction"}, {"measurement": "IL-10 expression", "setting": "[1]", "result": "increase"}, {"measurement": "number of chemokine proteins with marked reduction", "setting": "[1]; of 15 chemokines increased in vehicle-treated control", "result": 11}, {"measurement": "number of pro-inflammatory cytokines with reduced expression", "setting": "[1]; of 17 cytokines increased in vehicle-treated control", "result": 13}]}
